Values after ≈ are worked out from the molar mass of the structure shown. Read-outs that look alike come from different tables or passages of the source.
How the values were obtained:
[1] = tested on: E. faecalis ATCC 29212; assay: microbe, parasite or virus in culture; settings: Enterococcus faecalis, ATCC29212, 24 h, read-out: MIC, E. faecalis ATCC29212
[2] = tested on: vancomycin‐resistant E. faecium clinical isolates with reduced susceptibility to daptomycin (n = 26); assay: microbe, parasite or virus in culture; settings: Enterococcus faecium; for MIC: 24 h
[3] = tested on: E. faecalis ATCC 29212; settings: reference strain in Table S5; broth microdilution, MHB II, 37 °C, 24 h; daptomycin with 50 µg/mL Ca2+; mean of two independent experiments
[4] = tested on: vancomycin‐resistant E. faecium clinical isolates with reduced susceptibility to daptomycin (n = 26); settings: 24 h

Q: Which results are given for CC1(C)S[C@@H]2[C@H](NC(=O)[C@H](N)c3ccccc3)C(=O)N2[C@H]1C(=O)O [Ampicillin]?
A: MIC [1]: 2 µg/mL (≈ 5.72 µM); MIC ([2]; read-out: MIC, Enterococcus faecium isolate 1): > 64 µg/mL; MIC ([2]; read-out: MIC, Enterococcus faecium isolate 2): > 64 µg/mL; MIC ([2]; read-out: MIC, Enterococcus faecium isolate 3): 64 µg/mL (≈ 183 µM); MIC ([2]; read-out: MIC, Enterococcus faecium isolate 4): > 64 µg/mL; MIC ([2]; read-out: MIC, Enterococcus faecium isolate 5): > 64 µg/mL; MIC ([2]; read-out: MIC, Enterococcus faecium isolate 6): > 64 µg/mL; MIC ([2]; read-out: MIC, Enterococcus faecium isolate 7): > 64 µg/mL; MIC ([2]; read-out: MIC, Enterococcus faecium isolate 8): > 64 µg/mL; MIC ([2]; read-out: MIC, Enterococcus faecium isolate 9): > 64 µg/mL; MIC ([2]; read-out: MIC, Enterococcus faecium isolate 10): > 64 µg/mL; MIC ([2]; read-out: MIC, Enterococcus faecium isolate 11): > 64 µg/mL; MIC ([2]; read-out: MIC, Enterococcus faecium isolate 12): > 64 µg/mL; MIC ([2]; read-out: MIC, Enterococcus faecium isolate 13): > 64 µg/mL; MIC ([2]; read-out: MIC, Enterococcus faecium isolate 14): > 64 µg/mL; MIC ([2]; read-out: MIC, Enterococcus faecium isolate 15): > 64 µg/mL; MIC ([2]; read-out: MIC, Enterococcus faecium isolate 16): > 64 µg/mL; MIC ([2]; read-out: MIC, Enterococcus faecium isolate 17): > 64 µg/mL; MIC ([2]; read-out: MIC, Enterococcus faecium isolate 18): > 64 µg/mL; MIC ([2]; read-out: MIC, Enterococcus faecium isolate 19): > 64 µg/mL; MIC ([2]; read-out: MIC, Enterococcus faecium isolate 20): > 64 µg/mL; MIC ([2]; read-out: MIC, Enterococcus faecium isolate 21): > 64 µg/mL; MIC ([2]; read-out: MIC, Enterococcus faecium isolate 22): > 64 µg/mL; MIC ([2]; read-out: MIC, Enterococcus faecium isolate 23): > 64 µg/mL; MIC ([2]; read-out: MIC, Enterococcus faecium isolate 24): > 64 µg/mL; MIC ([2]; read-out: MIC, Enterococcus faecium isolate 25): > 64 µg/mL; MIC ([2]; read-out: MIC, Enterococcus faecium isolate 26): > 64 µg/mL; MIC50 ([2]; VRE): > 64 µg/mL; MIC90 ([2]; VRE): > 64 µg/mL

Q: With O=C(O)c1cn(C2CC2)c2cc(N3CCNCC3)c(F)cc2c1=O [Ciprofloxacin] as the compound, how does the MIC [1] read?
A: Its MIC is 2 µg/mL (≈ 6.04 µM).

Q: Which “MIC, E. faecalis ATCC29212” value [3] does the source give for CCCCCCCCCC(=O)N[C@@H](Cc1c[nH]c2ccccc12)C(=O)N[C@H](CC(N)=O)C(=O)N[C@@H](CC(=O)O)C(=O)N[C@@H]1C(=O)NCC(=O)N[C@@H](CCCN)C(=O)N[C@@H](CC(=O)O)C(=O)N[C@H](C)C(=O)N[C@@H](CC(=O)O)C(=O)NCC(=O)N[C@H](CO)C(=O)N[C@@H]([C@H](C)CC(=O)O)C(=O)N[C@@H](CC(=O)c2ccccc2N)C(=O)O[C@@H]1C [Daptomycin, daptomycin] here?
A: Its value is 4 µg/mL (≈ 2.47 µM).

Q: What about the MIC50 [4] of the same compound?
A: Its MIC50 is 8 µg/mL (≈ 4.94 µM).

Q: And the MIC90 [4]?
A: The MIC90 was 8 µg/mL (≈ 4.94 µM).

Q: What about the “MIC Range” value [4] of the same compound?
A: Its value is 8 to 16 µg/mL.

Q: And the “MIC, Enterococcus faecium isolate 1” value [4]?
A: Its value is 8 µg/mL (≈ 4.94 µM).

Q: What about the “MIC, Enterococcus faecium isolate 2” value [4] of the same compound?
A: Its value is 8 µg/mL (≈ 4.94 µM).

Q: What about the “MIC, Enterococcus faecium isolate 3” value [4] of the same compound?
A: Its value is 8 µg/mL (≈ 4.94 µM).

Q: What about the “MIC, Enterococcus faecium isolate 4” value [4] of the same compound?
A: Its value is 8 µg/mL (≈ 4.94 µM).

Q: And the “MIC, Enterococcus faecium isolate 5” value [4]?
A: Its value is 8 µg/mL (≈ 4.94 µM).

Q: What about the “MIC, Enterococcus faecium isolate 6” value [4] of the same compound?
A: Its value is 8 µg/mL (≈ 4.94 µM).

Q: And the “MIC, Enterococcus faecium isolate 7” value [4]?
A: The value was 8 µg/mL (≈ 4.94 µM).

Q: And the “MIC, Enterococcus faecium isolate 8” value [4]?
A: The value was 8 µg/mL (≈ 4.94 µM).

Q: What about the “MIC, Enterococcus faecium isolate 9” value [4] of the same compound?
A: Its value is 8 µg/mL (≈ 4.94 µM).

Q: And the “MIC, Enterococcus faecium isolate 10” value [4]?
A: Its value is 8 µg/mL (≈ 4.94 µM).

Q: And the “MIC, Enterococcus faecium isolate 11” value [4]?
A: The value was 8 µg/mL (≈ 4.94 µM).

Q: And the “MIC, Enterococcus faecium isolate 12” value [4]?
A: The value was 8 µg/mL (≈ 4.94 µM).

Q: And the “MIC, Enterococcus faecium isolate 13” value [4]?
A: Its value is 8 µg/mL (≈ 4.94 µM).

Q: And the “MIC, Enterococcus faecium isolate 14” value [4]?
A: The value was 8 µg/mL (≈ 4.94 µM).

Q: And the “MIC, Enterococcus faecium isolate 15” value [4]?
A: Its value is 8 µg/mL (≈ 4.94 µM).

Q: What about the “MIC, Enterococcus faecium isolate 16” value [4] of the same compound?
A: Its value is 8 µg/mL (≈ 4.94 µM).

Q: And the “MIC, Enterococcus faecium isolate 17” value [4]?
A: The value was 8 µg/mL (≈ 4.94 µM).

Q: And the “MIC, Enterococcus faecium isolate 18” value [4]?
A: Its value is 8 µg/mL (≈ 4.94 µM).

Q: And the “MIC, Enterococcus faecium isolate 19” value [4]?
A: The value was 8 µg/mL (≈ 4.94 µM).

Q: What about the “MIC, Enterococcus faecium isolate 20” value [4] of the same compound?
A: The value was 8 µg/mL (≈ 4.94 µM).

Q: What about the “MIC, Enterococcus faecium isolate 21” value [4] of the same compound?
A: The value was 8 µg/mL (≈ 4.94 µM).

Q: And the “MIC, Enterococcus faecium isolate 22” value [4]?
A: The value was 8 µg/mL (≈ 4.94 µM).

Q: And the “MIC, Enterococcus faecium isolate 23” value [4]?
A: The value was 8 µg/mL (≈ 4.94 µM).

Q: And the “MIC, Enterococcus faecium isolate 24” value [4]?
A: Its value is 16 µg/mL (≈ 9.87 µM).

Q: And the “MIC, Enterococcus faecium isolate 25” value [4]?
A: The value was 16 µg/mL (≈ 9.87 µM).

Q: What about the “MIC, Enterococcus faecium isolate 26” value [4] of the same compound?
A: Its value is 8 µg/mL (≈ 4.94 µM).

Source: paper PMC12171682, “Saarvienin A—A Novel Glycopeptide with Potent Activity against Drug‐Resistant Bacteria” (Angewandte Chemie (International Ed. in English), 2025)
